The values that follow are results of earlier work, collected in US9763439B2, “Method of packaging food” (Universidad de Santiago de Chile, priority 2013, dated 2017).

The conditions of this series: thermoforming process (±140° C.) does not affect its stability.

Consider `C/C=C/C=C/C(=O)[O-].[K+]` [potassium sorbate], for which the temperature withstood result is “up to 270 °C”.
